In patent publication US7491819B1 (priority 2004, dated 2009) one finds IC50 data, which are given here for 28 compounds.

Each structure is given as a SMILES string. pIC50: −log10 of the molar value. A value given as a limit tells only on which side of the number the result lay.

The target of this assay is T1, HIV-integrase (Human immunodeficiency virus type 1 group M subtype B, UniProt P12497).
T1 construct: Recombinant integrase (0.26 ng) was incubated with the beads
Nature of the assay: HIV-Integrase Inhibition Activity (SPA bead strand-transfer assay). Conditions: Table 1; read-out: Activity (HIV-integrase inhibition, IC50 class). Type of assay: biochemical. The essentials: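 Strand-transfer read-out: CPM from P33-labelled target DNA (0.1 fmol) joined to bead-bound biotin substrate DNA (5 pmole), with EDTA stop at 10 mM final. Integrase (0.26 ng) prebound to streptavidin SPA beads 90 min, 37° C, and washed before adding inhibitor.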

As for `CCC1(CC)OCCn2c1nc(C(=O)NCc1ccc(F)cc1-n1cncn1)c(O)c2=O` [Example 119, Pyrimido[2,1-c][1,4]oxazine-2-carboxamide, 9,9-diethyl-N-[[4-fluoro-2-(1H-1,2,4-triazol-1-yl)phenyl]methyl]-4,6,7,9-tetrahydro-3-hydroxy-4-oxo-], the pIC50 was 7.00 to 8.70.

As for `CCC1(CC)OCCn2c1nc(C(=O)NCc1ccc(F)cc1C(=O)NC)c(O)c2=O` [Example 120, Pyrimido[2,1-c][1,4]oxazine-2-carboxamide, 9,9-diethyl-N-[[4-fluoro-2-[(methylamino)carbonyl]phenyl]methyl]-4,6,7,9-tetrahydro-3-hydroxy-4-oxo-], the pIC50 is 7.00 to 8.70. With `CC1(C)OCCn2c1nc(C(=O)NCc1ccc(F)cc1N1CCCCC1=O)c(O)c2=O` [Example 121, Pyrimido[2,1-c][1,4]oxazine-2-carboxamide, N-[[4-fluoro-2-(2-oxo-1-piperidinyl)phenyl]methyl]-4,6,7,9-tetrahydro-3-hydroxy-9,9-dimethyl-4-oxo-] the figure was 7.00 to 8.70. With `CC1(C)OCCn2c1nc(C(=O)NCc1ccccc1N1CCOC1=O)c(O)c2=O` [Example 122, Pyrimido[2,1-c][1,4]oxazine-2-carboxamide, 4,6,7,9-tetrahydro-3-hydroxy-9,9-dimethyl-4-oxo-N-[[2-(2-oxo-3-oxazolidinyl)phenyl]methyl]-] the figure was 7.00 to 8.70; with `CC1(C)OCCn2c1nc(C(=O)NCc1ccccc1N1CCC1=O)c(O)c2=O` [Example 123, Pyrimido[2,1-c][1, 4]oxazine-2-carboxamide, 4,6,7,9-tetrahydro-3-hydroxy-9,9-dimethyl-4-oxo-N-[[2-(2-oxo-1-azetidinyl)phenyl]methyl]-], 7.00 to 8.70; with `CC1(C)OCCn2c1nc(C(=O)NCc1ccc(F)cc1N1CCCC1=O)c(O)c2=O` [Example 124, Pyrimido[2,1-c][1,4]oxazine-2-carboxamide, N-[[4-fluoro-2-(2-oxo-1-pyrrolidinyl)phenyl]methyl]-4,6,7,9-tetrahydro-3-hydroxy-9,9-dimethyl-4-oxo], 7.00 to 8.70. `CC1(C)OCCn2c1nc(C(=O)NCc1ccc(F)cc1N1CCCCCC1=O)c(O)c2=O` [Example 125, Pyrimido[2,1-c][1,4]oxazine-2-carboxamide, N-[[4-fluoro-2-(hexahydro-2-oxo-1H-azepin-1-yl)phenyl]methyl]-4,6,7,9-tetrahydro-3-hydroxy-9,9-dimethyl-4-oxo-]: the pIC50 is 7.00 to 8.70.

With `CC1(C)OCCn2c1nc(C(=O)NCc1ccc(F)cc1N1CCC1=O)c(O)c2=O` [Example 126, N-(4-Fluoro-2-(2-oxoazetidin-1-yl)benzyl)-3-hydroxy-9,9-dimethyl-4-oxo-4,6,7,9-tetrahydropyrimido[2,1-c][1,4]oxazine-2-carboxamide], the pIC50 is 7.00 to 8.70.

Regarding `CC1(C)OCCn2c1nc(C(=O)NCc1ccc(F)cc1N1CCOC1=O)c(O)c2=O` [Example 127, N-(4-Fluoro-2-(2-oxooxazolidin-3-yl)benzyl)-3-hydroxy-9,9-dimethyl-4-oxo-4,6,7,9-tetrahydropyrimido[2,1-c][1,4]oxazine-2-carboxamide], the pIC50 was 7.00 to 8.70. With `CC1(C)OCCn2c1nc(C(=O)NCc1ccc(F)cc1N1C(=O)CC[C@@H]1CO)c(O)c2=O` [Example 128, Pyrimido[2,1-c][1,4]oxazine-2-carboxamide, N-[[4-fluoro-2-[(2R)-2-(hydroxymethyl)-5-oxo-1-pyrrolidinyl]phenyl]methyl]-4,6,7,9-tetrahydro-3-hydroxy-9,9-dimethyl-4-oxo-] the figure was 7.00 to 8.70.

Turning to `CC(=O)OC[C@H]1CCC(=O)N1c1cc(F)ccc1CNC(=O)c1nc2n(c(=O)c1O)CCOC2(C)C` [Example 129, Pyrimido[2,1-c][1,4]oxazine-2-carboxamide, N-[[2-[(2R)-2-[(acetyloxy)methyl]-5-oxo-1-pyrrolidinyl]-4-fluorophenyl]methyl]-4,6,7,9-tetrahydro-3-hydroxy-9,9-dimethyl-4-oxo-], the pIC50 is 7.00 to 8.70. The value for `CC1(C)OCCn2c1nc(C(=O)NCc1ccc(F)cc1N1C(=O)CC[C@H]1CO)c(O)c2=O` [Example 130, Pyrimido[2,1-c][1,4]oxazine-2-carboxamide, N-[[4-fluoro-2-[(2S)-2-(hydroxymethyl)-5-oxo-1-pyrrolidinyl]phenyl]methyl]-4,6,7,9-tetrahydro-3-hydroxy-9,9-dimethyl-4-oxo-] was 7.00 to 8.70; that for `CN(C)C[C@H]1CCC(=O)N1c1cc(F)ccc1CNC(=O)c1nc2n(c(=O)c1O)CCOC2(C)C` [Example 131, (R)—N-(2-(2-((Dimethylamino)methyl)-5-oxopyrrolidin-1-yl)-4-fluorobenzyl)-3-hydroxy-9,9-dimethyl-4-oxo-4,6,7,9-tetrahydropyrimido[2,1-c][1,4]oxazine-2-carboxamide] was 6.00 to 7.00; that for `CC1(C)OCCn2c1nc(C(=O)NCc1ccc(F)cc1N1C(=O)CC[C@@H]1CN=[N+]=[N-])c(O)c2=O` [Example 132, (R)—N-(2-(2-(Azidomethyl)-5-oxopyrrolidin-1-yl)-4-fluorobenzyl)-3-hydroxy-9,9-dimethyl-4-oxo-4,6,7,9-tetrahydropyrimido[2,1-c][1,4]oxazine-2-carboxamide] was 7.00 to 8.70. Turning to `CC1(C)OCCn2c1nc(C(=O)NCc1ccc(F)cc1N1C(=O)CC[C@@H]1CN)c(O)c2=O` [Example 133, (R)—N-(2-(2-(Aminomethyl)-5-oxopyrrolidin-1-yl)-4-fluorobenzyl)-3-hydroxy-9,9-dimethyl-4-oxo-4,6,7,9-tetrahydropyrimido[2,1-c][1,4]oxazine-2-carboxamide], the pIC50 is 6.00 to 7.00. As for `CC1(C)OCCn2c1nc(C(=O)NCc1ccc(F)cc1N)c(O)c2=O` [Example 134, Pyrimido[2,1-c][1,4]oxazine-2-carboxamide, N-[(2-amino-4-fluorophenyl)methyl]-4,6,7,9-tetrahydro-3-hydroxy-9,9-dimethyl-4-oxo-], the pIC50 is 7.00 to 8.70. Regarding `CC(=O)Nc1cc(F)ccc1CNC(=O)c1nc2n(c(=O)c1O)CCOC2(C)C` [Example 135, Pyrimido[2,1-c][1,4]oxazine-2-carboxamide, N-[[2-(acetylamino)-4-fluorophenyl]methyl]-4,6,7,9-tetrahydro-3-hydroxy-9,9-dimethyl-4-oxo-], the pIC50 was 7.00 to 8.70.

Regarding `CC(=O)N(C)c1cc(F)ccc1CNC(=O)c1nc2n(c(=O)c1O)CCOC2(C)C` [Example 136, Pyrimido[2,1-c][1,4]oxazine-2-carboxamide, N-[[2-(acetylmethylamino)-4-fluorophenyl]methyl]-4,6,7,9-tetrahydro-3-hydroxy-9,9-dimethyl-4-oxo-], the pIC50 is 7.00 to 8.70. With `CC1(C)OCCn2c1nc(C(=O)NCc1ccccc1N1C(=O)C=CC1=O)c(O)c2=O` [Example 137, N-(2-(2,5-Dioxo-2H-pyrrol-1(5H)-yl)benzyl)-3-hydroxy-9,9-dimethyl-4-oxo-4,6,7,9-tetrahydropyrimido[2,1-c][1,4]oxazine-2-carboxamide], the pIC50 was 7.00 to 8.70. The value for `CC1(C)OCCn2c1nc(C(=O)NCc1cccc3ccsc13)c(O)c2=O` [Example 138, Pyrimido[2,1-c][1,4]oxazine-2-carboxamide, N-(benzo[b]thien-7-ylmethyl)-4,6,7,9-tetrahydro-3-hydroxy-9,9-dimethyl-4-oxo-] was 7.00 to 8.70. The value for `CC1(C)OCCn2c1nc(C(=O)NCc1cccc3c1S(=O)(=O)C=C3)c(O)c2=O` [Example 139, Pyrimido[2,1-c][1,4]oxazine-2-carboxamide, N-[(1,1-dioxidobenzo[b]thien-7-yl)methyl]-4,6,7,9-tetrahydro-3-hydroxy-9,9-dimethyl-4-oxo-] was 7.00 to 8.70; that for `CC1(C)OCCn2c1nc(C(=O)NCc1cccc3c1S(=O)(=O)CC3)c(O)c2=O` [Example 140, Pyrimido[2,1-c][1,4]oxazine-2-carboxamide, N-[(2,3-dihydro-1,1-dioxidobenzo[b]thien-7-yl)methyl]-4,6,7,9-tetrahydro-3-hydroxy-9,9-dimethyl-4-oxo-] was 7.00 to 8.70. For the compound `CC1(C)OCCn2c1nc(C(=O)NCc1ccccn1)c(O)c2=O` [Example 141, Pyrimido[2,1-c][1,4]oxazine-2-carboxamide, 4,6,7,9-tetrahydro-3-hydroxy-9,9-dimethyl-4-oxo-N-(2-pyridinylmethyl)-], the pIC50 is 7.00 to 8.70. The value for `Cc1cnc(CNC(=O)c2nc3n(c(=O)c2O)CCOC3(C)C)cn1` [Example 142, Pyrimido[2,1-c][1,4]oxazine-2-carboxamide, 4,6,7,9-tetrahydro-3-hydroxy-9,9-dimethyl-N-[(5-methylpyrazinyl)methyl]-4-oxo-] was 7.00 to 8.70; that for `CSc1ccc(CNC(=O)c2nc3n(c(=O)c2O)CCOC3(C)C)cc1` [Example 143, Pyrimido[2,1-c][1,4]oxazine-2-carboxamide, 4,6,7,9-tetrahydro-3-hydroxy-9,9-dimethyl-N-[[4-(methylthio)phenyl]methyl]-4-oxo-] was 7.00 to 8.70; that for `Cc1[nH]c2ccc(CNC(=O)c3nc4n(c(=O)c3O)CCOC4(C)C)cc2c1C` [Example 144, Pyrimido[2,1-c][1,4]oxazine-2-carboxamide, N-[(2,3-dimethyl-1H-indol-5-yl)methyl]-4,6,7,9-tetrahydro-3-hydroxy-9,9-dimethyl-4-oxo-] was 6.00 to 7.00. With `CC(C)Oc1ccc(CNC(=O)c2nc3n(c(=O)c2O)CCOC3(C)C)cc1` [Example 145, Pyrimido[2,1-c][1,4]oxazine-2-carboxamide, 4,6,7,9-tetrahydro-3-hydroxy-9,9-dimethyl-N-[[4-(1-methylethoxy)phenyl]methyl]-4-oxo-] the figure was less than 6.00; with `CC1(C)OCCn2c1nc(C(=O)NCc1cc(F)cc(F)c1)c(O)c2=O` [Example 146, Pyrimido[2,1-c][1,4]oxazine-2-carboxamide, N-[(3,5-difluorophenyl)methyl]-4,6,7,9-tetrahydro-3-hydroxy-9,9-dimethyl-4-oxo-], 7.00 to 8.70.

By pIC50 is commonly meant the negative decadic logarithm of the IC50, by convention in mol/L.
